Reference: the supplement of paper PMC10307832

How the values were obtained:
Experiment in all cases: relative viability (nuclei count vs DMSO), 5 days (fraction); higher = more cells survive
[1] = compound: CC1=C(N=C(N=C1N)[C@H](CC(=O)N)NC[C@@H](C(=O)N)N)C(=O)N[C@@H]([C@H](C2=CN=CN2)OC3C(C(C(C(O3)CO)O)O)OC4C(C(C(C(O4)CO)O)OC(=O)N)O)C(=O)N[C@H](C)[C@H]([C@H](C)C(=O)N[C@@H]([C@@H](C)O)C(=O)NCCC5=NC(=CS5)C6=NC(=CS6)C(=O)NCCC[S+](C)C)O [Bleomycin] + CS(=O)(=O)N1CCN(Cc2cc3nc(-c4cccc5[nH]ncc45)nc(N4CCOCC4)c3s2)CC1 [Pictilisib] (partner 1 µM); details: main component drawn
Summary of the method: (§1)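 Dosing by pin tool came one day after lung cancer cell lines were seeded in 1536-well plates, using either one drug or a fixed anchor-drug dose plus five library-drug doses (not always all listed) in √10 steps. After 5 days, nuclei were counted on 4× images. Relative viability is treated-well nuclei count divided by vehicle-well nuclei count, and values are medians of duplicate plates.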

[2] = compound: CC1=C(N=C(N=C1N)[C@H](CC(=O)N)NC[C@@H](C(=O)N)N)C(=O)N[C@@H]([C@H](C2=CN=CN2)OC3C(C(C(C(O3)CO)O)O)OC4C(C(C(C(O4)CO)O)OC(=O)N)O)C(=O)N[C@H](C)[C@H]([C@H](C)C(=O)N[C@@H]([C@@H](C)O)C(=O)NCCC5=NC(=CS5)C6=NC(=CS6)C(=O)NCCC[S+](C)C)O [Bleomycin] + C[C@@H](Oc1cc(-c2cnn(C3CCNCC3)c2)cnc1N)c1c(Cl)ccc(F)c1Cl [Crizotinib] (partner 1 µM); details: main component drawn
Summary of the method: as §1

[3] = compound: COc1cc([C@@H]2c3cc4c(cc3[C@@H](O[C@@H]3O[C@@H]5CO[C@@H](C)O[C@H]5[C@H](O)[C@H]3O)[C@H]3COC(=O)[C@H]23)OCO4)cc(OC)c1O [Etoposide] + CC(=O)Nc1cccc(-n2c(=O)n(C3CC3)c(=O)c3c(Nc4ccc(I)cc4F)n(C)c(=O)c(C)c32)c1 [Trametinib] (partner 0.02 µM)
Summary of the method: as §1

[4] = compound: COc1cc([C@@H]2c3cc4c(cc3[C@@H](O[C@@H]3O[C@@H]5CO[C@@H](C)O[C@H]5[C@H](O)[C@H]3O)[C@H]3COC(=O)[C@H]23)OCO4)cc(OC)c1O [Etoposide] + CC(C)C[C@H](NC(=O)[C@H](Cc1ccccc1)NC(=O)c1cnccn1)B(O)O [Bortezomib] (partner 0.002 µM)
Summary of the method: as §1

For UMC-11, the relative viability ([1]; first compound 0.01 µM) was 0.842, the relative viability ([1]; first compound 0.03162 µM) was 0.661 and the relative viability ([1]; first compound 0.1 µM) was 0.827. The relative viability ([1]; first compound 0.3162 µM) was 0.66, the relative viability ([1]; first compound 1 µM) was 0.577 and the relative viability ([2]; first compound 0.01 µM) was 0.528. It also gave a relative viability ([2]; first compound 0.03162 µM) of 0.571, a relative viability ([2]; first compound 0.1 µM) of 0.419 and a relative viability ([2]; first compound 0.3162 µM) of 0.326. For the same cell line, the relative viability ([2]; first compound 1 µM) was 0.252, the relative viability ([3]; first compound 0.01 µM) was 0.711 and the relative viability ([3]; first compound 0.03162 µM) was 0.711. The relative viability ([3]; first compound 0.1 µM) was 0.352, the relative viability ([3]; first compound 0.3162 µM) was 0.258 and the relative viability ([3]; first compound 1 µM) was 0.292. The relative viability ([4]; first compound 0.01 µM) was 0.685, the relative viability ([4]; first compound 0.03162 µM) was 0.777 and the relative viability ([4]; first compound 0.3162 µM) was 0.389. It also gave a relative viability ([4]; first compound 1 µM) of 0.187.
